Converted amounts (≈) assume the structure as drawn. “And” between values parts separate entries of the source, which are not always exact repeats. Equal entries are not always repeated. Where two headings read alike, the source gives them in different places.
Assays:
[1] = test system: BL21(DE3) E. coli transformed with pUCP18 vector expressing AAC(3)-XIa; experiment: Antibiotic susceptibility testing, endpoint MIC assay; type: cell-based; details: Escherichia coli, 20 h, read-out: Endpoint minimum inhibitory concentration (MIC)
Protocol: (§1) Ten milliliters of cultures of LB containing […] ampicillin were inoculated from glycerol stocks of transformed BL21(DE3) E. coli containing genes expressing the proteins of interest in pUCP18 vectors. Experiments were performed using 6xHis-tagged fusion-proteins, as well as untagged wild-type proteins. These cultures were incubated at 37 °C with 200 rpm agitation for 16 h. Turbidity was measured through OD600 with a NanoDrop OneC Spectrometer (Thermo Scientific). From the initial cultures, secondary 10 mL cultures were prepared with OD600 values of 0.1. These cultures were grown until OD600 values of 0.4–0.6 were reached and diluted to bring all cultures to the same OD600. Cultures were induced with 1 mM Isopropyl β-D-1-thiogalactopyranoside and incubated for 4 h. Cultures were diluted to 1 × 10^6 cells mL^−1. Two microliters of culture was added to 198 μL of LB with an appropriate aminoglycoside titration concentration. The formulated 96-well culture plate (Sarstedt) was incubated at 37 °C with 120 rpm orbital agitation. The remainder of the bacterial culture was immediately lysed and processed for Western blotting. OD600 was measured after 20 h using the Molecular Devices Spectra MAX 190 plate reader.

[2] = test system: empty pUCP18 vector transformed E. coli; experiment: as above; type: cell-based; details: Escherichia coli; empty pUCP18 vector control E. coli; after 20 h of growth; read-out: Endpoint minimum inhibitory concentration (MIC)
Protocol: as §1

[3] = test system: BL21(DE3) E. coli transformed with pUCP18 vector expressing AAC(3)-IIIa; experiment: as above; type: cell-based; details: Escherichia coli, 20 h, read-out: Endpoint minimum inhibitory concentration (MIC)
Protocol: as §1

[4] = test system: BL21(DE3) E. coli transformed with pUCP18 vector expressing AAC(3)-Ia; experiment: as above; type: cell-based; details: Escherichia coli, 20 h, read-out: Endpoint minimum inhibitory concentration (MIC)
Protocol: as §1

[5] = test system: BL21(DE3) E. coli transformed with pUCP18 vector expressing untagged AAC(3)-Ia; type: cell-based; details: E. coli expressing AAC(3)-Ia; 12 μg mL^−1 antibiotic; 17 h
Protocol: (§2) Ten milliliters of LB containing […] ampicillin were inoculated from glycerol stocks of transformed BL21(DE3) E. coli containing genes expressing the proteins of interest in pUCP18 vectors. These cultures were incubated at 37 °C with 200 rpm agitation for 16 h. Turbidity was measured through OD600 with a NanoDrop OneC Spectrometer (Thermo Scientific). From the initial cultures, secondary 10 mL cultures were prepared with OD600 values of 0.1. These cultures were grown until OD600 values of 0.4–0.6 were reached and diluted to bring all cultures to the same OD600. Cultures were induced with 1 mM Isopropyl β-D-1-thiogalactopyranoside and incubated for 4 h. Two microliters of culture was added to 198 μL of LB with an appropriate aminoglycoside titration concentration. Each titration point was repeated n = 4 times. The formulated 96-well culture plate (Sarstedt) had OD600 measured on a 20-min interval over 17 h using a BioTek Cytation 5 Cell Imaging Multimode Reader, incubating at 37 °C with 282 cpm orbital agitation. Experiments were repeated with fresh cultures on separate days to ensure consistent trends. Data was analyzed in Microsoft Excel and GraphPad5. The remainder of the culture immediately had its RNA isolated for qPCR experiments.

[6] = test system: BL21(DE3) E. coli transformed with pUCP18 vector expressing untagged AAC(3)-IIIa; type: cell-based; details: E. coli expressing AAC(3)-IIIa; 12 μg mL^−1 antibiotic; 17 h
Protocol: as §2

[7] = test system: BL21(DE3) E. coli transformed with pUCP18 vector expressing untagged AAC(3)-XIa; type: cell-based
Protocol: as §2

AAC(3)-IIIa = target: T1, AAC(3)-IIIa (Pseudomonas aeruginosa, UniProt P29808); experiment: Isothermal titration calorimetry; type: binding, P. aeruginosa
T1 construct: 6xHis-tag (thrombin-cleavable, pET15b) (N); made in house; host or cells: LOBSTR E. coli
T1 sequence (P29808 whole entry): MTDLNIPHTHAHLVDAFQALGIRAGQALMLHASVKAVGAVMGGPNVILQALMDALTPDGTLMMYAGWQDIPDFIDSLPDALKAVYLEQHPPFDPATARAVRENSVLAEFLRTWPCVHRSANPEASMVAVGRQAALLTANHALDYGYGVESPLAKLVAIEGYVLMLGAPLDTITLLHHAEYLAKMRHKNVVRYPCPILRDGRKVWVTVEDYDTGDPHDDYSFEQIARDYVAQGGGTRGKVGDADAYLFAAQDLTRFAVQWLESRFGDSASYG
Protocol: To accurately measure protein ligand interactions, the concentration of our proteins of interest was measured spectrophotometrically using the NanoDrop OneC Spectrometer (Thermo Scientific). ITC experiments were performed on a MicroCal iTC 200 (General Electric) at 25 °C with stirring at 750 rpm. Unique buffer solutions were used for each enzyme. AAC(3)-Ia was prepared in 50 mM HEPES, pH 7, and 150 mM NaCl. AAC(3)-IIIa was prepared in 120 mM Tris, pH 7.5, and 150 mM NaCl. AAC(3)-XIa was prepared in 20 mM Tris, pH 7.5, and 150 mM NaCl. The cell contained 550 μM AAC(3)-Ia, 350 μM AAC(3)-IIIa, or 450 μM AAC(3)-XIa. All experiments also contained 5000 μM of coenzyme A trilithium salt in the cell. […] In all ITC experiments, aminoglycosides were prepared in the same buffering solution as the target protein. The ligands were injected 29 times ([…] per injection) with a 180 s interval between injections. Results were analyzed using ORIGIN software version 7E (MicroCal) using the molecular weight of a single protomer of each protein and fitted with a two-set of sites binding model (Supplementary Fig. 5). Data analysis was performed in Microsoft Excel and GraphPad5 software. One-way ANOVA and Tukey’s multiple comparison tests were used to determine the statistical significance of binding affinities.

[8] = first set of sites, 25 °C, with coenzyme A, n = 3
[9] = second set of sites, 25 °C, with coenzyme A, n = 3

Q: With `CN[C@@H]1[C@@H](O)[C@@H](O[C@@H]2[C@@H](O)[C@H](O[C@H]3OC(CN)=CC[C@H]3N)[C@@H](N)C[C@H]2N)OC[C@]1(C)O` [Sisomicin, sisomicin] as the compound, how does the MIC [1] read?
A: The MIC was 12 µg/mL (≈ 26.8 µM).

Q: What about the MIC [2] of the same compound?
A: The MIC was 6 µg/mL (≈ 13.4 µM).

Q: What about the MIC [3] of the same compound?
A: The MIC was 12 µg/mL (≈ 26.8 µM).

Q: What about the MIC [4] of the same compound?
A: Its MIC is 6 µg/mL (≈ 13.4 µM).

Q: What about the “Growth (OD600 growth curve)” value [5] of the same compound?
A: Its value is “none of the strains of transformed E. coli were able to grow at all”.

Q: What about the “Growth (OD600 growth curve)” value [6] of the same compound?
A: Its value is “none of the strains of transformed E. coli were able to grow at all”.

Q: And the OD600 growth curve ([7]; 3 ug/mL Sisomicin, time point 12:39:10)?
A: The OD600 growth curve was 0.741 and 0.631 and 0.615 and 0.786.

Q: What about the OD600 growth curve ([7]; 3 ug/mL Sisomicin, time point 12:59:10) of the same compound?
A: Its OD600 growth curve is 0.747 and 0.634 and 0.621 and 0.795.

Q: What about the OD600 growth curve ([7]; 3 ug/mL Sisomicin, time point 13:19:10) of the same compound?
A: Its OD600 growth curve is 0.745 and 0.632 and 0.619 and 0.794.

Q: And the OD600 growth curve ([7]; 3 ug/mL Sisomicin, time point 13:39:10)?
A: The OD600 growth curve was 0.742 and 0.632 and 0.619 and 0.79.

Q: What about the OD600 growth curve ([7]; 3 ug/mL Sisomicin, time point 13:59:10) of the same compound?
A: Its OD600 growth curve is 0.738 and 0.632 and 0.618 and 0.787.

Q: And the OD600 growth curve ([7]; 3 ug/mL Sisomicin, time point 14:19:10)?
A: Its OD600 growth curve is 0.744 and 0.634 and 0.623 and 0.797.

Q: What about the OD600 growth curve ([7]; 3 ug/mL Sisomicin, time point 14:39:10) of the same compound?
A: Its OD600 growth curve is 0.747 and 0.635 and 0.625 and 0.799.

Q: What about the OD600 growth curve ([7]; 3 ug/mL Sisomicin, time point 14:59:10) of the same compound?
A: Its OD600 growth curve is 0.745 and 0.635 and 0.627 and 0.795.

Q: What about the OD600 growth curve ([7]; 6 ug/mL Sisomicin, time point 12:39:10) of the same compound?
A: The OD600 growth curve was 0.62 and 0.602 and 0.749 and 0.849.

Q: What about the OD600 growth curve ([7]; 6 ug/mL Sisomicin, time point 12:59:10) of the same compound?
A: The OD600 growth curve was 0.627 and 0.606 and 0.748 and 0.838.

Q: What about the OD600 growth curve ([7]; 6 ug/mL Sisomicin, time point 13:19:10) of the same compound?
A: Its OD600 growth curve is 0.634 and 0.612 and 0.751 and 0.829.

Q: What about the OD600 growth curve ([7]; 6 ug/mL Sisomicin, time point 13:39:10) of the same compound?
A: The OD600 growth curve was 0.639 and 0.613 and 0.744 and 0.819.

Q: What about the OD600 growth curve ([7]; 6 ug/mL Sisomicin, time point 13:59:10) of the same compound?
A: The OD600 growth curve was 0.641 and 0.612 and 0.741 and 0.805.

Q: And the OD600 growth curve ([7]; 6 ug/mL Sisomicin, time point 14:19:10)?
A: The OD600 growth curve was 0.645 and 0.615 and 0.738 and 0.792.

Q: What about the OD600 growth curve ([7]; 6 ug/mL Sisomicin, time point 14:39:10) of the same compound?
A: The OD600 growth curve was 0.654 and 0.626 and 0.749 and 0.784.

Q: And the OD600 growth curve ([7]; 6 ug/mL Sisomicin, time point 14:59:10)?
A: Its OD600 growth curve is 0.663 and 0.629 and 0.759 and 0.771.

Q: And the OD600 growth curve ([7]; 6 ug/mL Sisomicin, time point 15:19:10)?
A: The OD600 growth curve was 0.67 and 0.64 and 0.762.

Q: What about the OD600 growth curve ([7]; 12 ug/mL Sisomicin, time point 12:39:10) of the same compound?
A: The OD600 growth curve was 0.093 and 0.101 and 0.109 and 0.105.

Q: What about the OD600 growth curve ([7]; 12 ug/mL Sisomicin, time point 12:59:10) of the same compound?
A: The OD600 growth curve was 0.093 and 0.101 and 0.109 and 0.105.

Q: What about the OD600 growth curve ([7]; 12 ug/mL Sisomicin, time point 13:19:10) of the same compound?
A: Its OD600 growth curve is 0.093 and 0.101 and 0.108 and 0.104.

Q: And the OD600 growth curve ([7]; 12 ug/mL Sisomicin, time point 13:39:10)?
A: Its OD600 growth curve is 0.093 and 0.101 and 0.108 and 0.104.

Q: What about the OD600 growth curve ([7]; 12 ug/mL Sisomicin, time point 13:59:10) of the same compound?
A: Its OD600 growth curve is 0.093 and 0.1 and 0.108 and 0.104.

Q: And the OD600 growth curve ([7]; 12 ug/mL Sisomicin, time point 14:19:10)?
A: The OD600 growth curve was 0.093 and 0.1 and 0.108 and 0.103.

Q: What about the OD600 growth curve ([7]; 12 ug/mL Sisomicin, time point 14:39:10) of the same compound?
A: The OD600 growth curve was 0.093 and 0.1 and 0.108 and 0.103.

Q: And the OD600 growth curve ([7]; 12 ug/mL Sisomicin, time point 14:59:10)?
A: The OD600 growth curve was 0.093 and 0.1 and 0.107 and 0.103.

Q: What about the OD600 growth curve ([7]; 12 ug/mL Sisomicin, time point 15:19:10) of the same compound?
A: The OD600 growth curve was 0.093.

Q: What about the “Growth (OD600 growth curve)” value ([7]; E. coli expressing AAC(3)-XIa, 12 μg mL^−1 antibiotic, 17 h) of the same compound?
A: Its value is “none of the strains of transformed E. coli were able to grow at all”.

Q: What about the TΔS (AAC(3)-IIIa; [8]) of the same compound?
A: The TΔS was -0.411 ± 0.318 kcal/mol.

Q: And the ΔG (AAC(3)-IIIa; [8])?
A: Its ΔG is -8.05 ± 0.474 kcal/mol.

Q: And the ΔH (AAC(3)-IIIa; [8])?
A: The ΔH was -8.46 ± 0.351 kcal/mol.

Q: What about the “N (sites)” value (AAC(3)-IIIa; first set of sites, two-set of sites model, 25 °C, with coenzyme A, n = 3) of the same compound?
A: The value was 0.35 ± 0.03 sites.

Q: And the Kd (AAC(3)-IIIa; first set of sites, two-set of sites model, 25 °C, with coenzyme A, n = 3, read-out: Kd)?
A: The Kd was 1300 ± 100 nM.

Q: And the Kd (AAC(3)-IIIa; individual replicates, raw data behind Fig. 6, read-out: Kd)?
A: Its Kd is 1420 nM and 1170 nM and 1230 nM.

Q: What about the “N2 (sites)” value (AAC(3)-IIIa; [9]) of the same compound?
A: The value was 0.56 ± 0.04 sites.

Q: And the “TΔS 2” value (AAC(3)-IIIa; [9])?
A: The value was 2 ± 0.146 kcal/mol.

Q: What about the “ΔG 2” value (AAC(3)-IIIa; [9]) of the same compound?
A: Its value is -7.74 ± 0.204 kcal/mol.

Q: What about the “ΔH 2” value (AAC(3)-IIIa; [9]) of the same compound?
A: The value was -5.74 ± 0.143 kcal/mol.

Q: What about the Kd (AAC(3)-IIIa; second set of sites, 25 °C, with coenzyme A, n = 3, read-out: Kd2) of the same compound?
A: The Kd was 2100 ± 200 nM.
